Test results from US20250163048A1 (Tango Therapeutics, Inc., priority 2022, published 2025).
Read-outs that look alike come from different tables or passages of the source.

Key:
[1] = system: HAP1 MTAP-intact cell line; assay: SDMA in-cell western assay, HAP1 MTAP-intact; conditions: Homo sapiens
From the text: (§1) HAP1 MTAP-intact is a cell line in which endogenous levels of MTAP are expressed, and HAP1 MTAP-deleted is an MTAP-null cell line.

MTAP-deleted cell line = assay: viability assay for the MTAP-deleted cell line; format: cell-based; conditions: Homo sapiens, HAP1, viability assay
[2] = system: HAP1 MTAP-deleted cell line; assay: SDMA in-cell western assay, HAP1 MTAP-deleted; conditions: for IC50 / IC90: Homo sapiens; for Hap1 MTAP intact/deleted ratio: IC50 ratio between HAP1 MTAP-intact and HAP1 MTAP-deleted cell line
From the text: as §1

[3] = HAP1, read-out: Hap1 MTAP intact IC50, SDMA in-cell western, HAP1 MTAP-intact cell line
[4] = HAP1, read-out: Hap1 MTAP deleted IC50, SDMA in-cell western, HAP1 MTAP-deleted cell line
[5] = HAP1, read-out: Hap1 MTAP deleted IC90, SDMA in-cell western, HAP1 MTAP-deleted cell line
[6] = HAP1, read-out: Hap1 MTAP intact IC50, SDMA in-cell western assay, HAP1 MTAP-intact cell line
[7] = HAP1, read-out: Hap1 MTAP deleted IC50, SDMA in-cell western assay, HAP1 MTAP-deleted cell line
[8] = HAP1, read-out: Hap1 MTAP deleted IC90, SDMA in-cell western assay, HAP1 MTAP-deleted cell line
[9] = HAP1, read-out: Hap1 MTAP intact IC50

| Structure (SMILES) | IC50 [1, 3] [µM] | IC50 (MTAP-deleted cell line) [µM] | IC50 [2, 4] [µM] | IC90 [2, 5] [µM] | Hap1 MTAP intact/deleted ratio ([2]; SDMA in-cell western) | IC50 [1, 6] [µM] | IC50 [2, 7] [µM] | IC90 [2, 8] [µM] | Hap1 MTAP intact/deleted ratio ([2]; SDMA in-cell western assay) | IC50 [1, 9] [µM] |
| --- | --- | --- | --- | --- | --- | --- | --- | --- | --- | --- |
| C[C@H]1CC[C@H](c2ccc3sc(C4CCN(C)CC4)nc3c2)N(C(=O)C(=O)Nc2ccn3ccnc3c2)C1 [Compound 91, N-(imidazo[1,2-a]pyridin-7-yl)-2-((2R,5S)-5-methyl-2-(2-(1-methylpiperidin-4-yl)benzo[d]thiazol-5-yl)piperidin-1-yl)-2-oxoacetamide] | 0.005 to 0.05 | < 0.1 | < 0.005 | < 0.075 | B (“B” indicates an IC50 ratio greater than or equal to 15 fold but lower than 30 fold) | – | – | – | – | – |
| Cc1nc2cc([C@H]3CC[C@H](C)CN3C(=O)C(=O)Nc3cnc(N)c4cn[nH]c34)ccc2s1 [Compound 181, N-(4-amino-1H-pyrazolo[4,3-c]pyridin-7-yl)-2-((2R,5S)-5-methyl-2-(2-methylbenzo[d]thiazol-5-yl)piperidin-1-yl)-2-oxoacetamide] | 0.005 to 0.05 | < 0.1 | < 0.005 | < 0.075 | C (“C” indicates an IC50 ratio of less than 15 fold) | – | – | – | – | – |
| C[C@H]1CC[C@H](c2ccc3sc([C@H]4CCN(C)C[C@@H]4C)nc3c2)N(C(=O)C(=O)Nc2ccn3ccnc3c2)C1 (relative stereo) [Compound 48, N-imidazo[1,2-a]pyridin-7-yl-2-oxo-2-[(2R,5S)-5-methyl-2-[2-[rel-(3R,4S)-1,3-dimethyl-4-piperidyl]-1,3-benzothiazol-5-yl]-1-piperidyl]acetamide] | > 0.05 | < 0.1 | < 0.005 | < 0.075 | A (“A” indicates an IC50 ratio greater than or equal to 30 fold) | – | – | – | – | – |
| C[C@@H]1CCC[C@H](c2ccccc2)N1C(=O)C(=O)Nc1cnc(N)c2cn[nH]c12 (racemic) [Compound 270, N-(4-Amino-1H-pyrazolo[4,3-c]pyridin-7-yl)-2-oxo-2-[rac-(2R,6R)-2-methyl-6-phenyl-1-piperidyl]acetamide] | – | < 0.1 | – | – | – | > 0.05 | < 0.005 | < 0.075 | A (“A” indicates an IC50 ratio greater than or equal to 30 fold) | – |
| Cc1cc([C@H]2CC[C@H](C)CN2C(=O)C(=O)Nc2cnc(N)c3cn[nH]c23)cc(C)n1 [Compound 155] | > 0.05 | < 0.1 | 0.005 to 0.05 | 0.075 to 0.125 | C (“C” indicates an IC50 ratio of less than 15 fold) | – | – | – | – | – |
| C[C@H]1CC[C@H](c2ccc3sc(C4CCN(C)CC4)nc3c2)N(C(=O)C(=O)Nc2cncc3cn[nH]c23)C1 [Compound 94, 2-oxo-N-(1H-pyrazolo[4,3-c]pyridin-7-yl)-2-[(2R,5S)-5-methyl-2-[2-(1-methyl-4-piperidyl)-1,3-benzothiazol-5-yl]-1-piperidyl]acetamide] | – | < 0.1 | < 0.005 | < 0.075 | B (“B” indicates an IC50 ratio greater than or equal to 15 fold but lower than 30 fold) | – | – | – | – | 0.005 to 0.05 |
| C[C@H]1CC[C@H](c2ccc3cc(C#N)c(C4CCN(C)CC4)nc3c2)N(C(=O)C(=O)Nc2cncc3cn[nH]c23)C1 [Compound 176, 2-((2R,5S)-2-(3-cyano-2-(1-methylpiperidin-4-yl)quinolin-7-yl)-5-methylpiperidin-1-yl)-2-oxo-N-(1H-pyrazolo[4,3-c]pyridin-7-yl)acetamide] | > 0.05 | < 0.1 | < 0.005 | < 0.075 | B (“B” indicates an IC50 ratio greater than or equal to 15 fold but lower than 30 fold) | – | – | – | – | – |
| C[C@H]1CC[C@H](c2ccc3scnc3c2)N(C(=O)C(=O)Nc2cnc(N)c3[nH]ncc23)C1 [Compound 174, N-(7-amino-1H-pyrazolo[3,4-c]pyridin-4-yl)-2-((2R,5S)-2-(benzo[d]thiazol-5-yl)-5-methylpiperidin-1-yl)-2-oxoacetamide] | – | < 0.1 | < 0.005 | < 0.075 | C (“C” indicates an IC50 ratio of less than 15 fold) | – | – | – | – | 0.005 to 0.05 |
| CC(C)n1cc2cc([C@H]3CC[C@H](C)CN3C(=O)C(=O)Nc3cnc(N)c4cn[nH]c34)ccc2n1 (racemic) [Compound 231, N-(4-Amino-1H-pyrazolo[4,3-c]pyridin-7-yl)-2-oxo-2-[rac-(2R,5S)-2-(2-isopropylindazol-5-yl)-5-methyl-1-piperidyl]acetamide] | – | < 0.1 | – | – | – | 0.005 to 0.05 | < 0.005 | < 0.075 | A (“A” indicates an IC50 ratio greater than or equal to 30 fold) | – |
| C[C@H]1CC[C@H](c2ccc3nn([C@@H]4CCN(C)C4)cc3c2)N(C(=O)C(=O)Nc2cncc3cn[nH]c23)C1 [Compound 36, 2-oxo-N-(1H-pyrazolo[4,3-c]pyridin-7-yl)-2-[(2R,5S)-5-methyl-2-[2-[(3R)-1-methylpyrrolidin-3-yl]indazol-5-yl]-1-piperidyl]acetamide] | > 0.05 | 0.1 to 1 | < 0.005 | 0.075 to 0.125 | A (“A” indicates an IC50 ratio greater than or equal to 30 fold) | – | – | – | – | – |
| C[C@H]1CC[C@H](c2ccc3sc(C4CC5(C4)CN(C)C5)nc3c2)N(C(=O)C(=O)Nc2cncc3cn[nH]c23)C1 [Compound 93, 2-((2R,5S)-5-methyl-2-(2-(2-methyl-2-azaspiro[3.3]heptan-6-yl)benzo[d]thiazol-5-yl)piperidin-1-yl)-2-oxo-N-(1H-pyrazolo[4,3-c]pyridin-7-yl)acetamide] | 0.005 to 0.05 | < 0.1 | < 0.005 | < 0.075 | C (“C” indicates an IC50 ratio of less than 15 fold) | – | – | – | – | – |
| C[C@H]1CC[C@H](c2ccc3sc(C4CCN(C)C(=O)C4)nc3c2)N(C(=O)C(=O)Nc2cncc3[nH]ncc23)C1 (single isomer, unassigned) [Compound 73] | > 0.05 | 0.1 to 1 | 0.005 to 0.05 | > 0.125 | A (“A” indicates an IC50 ratio greater than or equal to 30 fold) | – | – | – | – | – |
| C[C@H]1CC[C@H](c2ccc3sc(C4CC(C)(C)N(C)C(C)(C)C4)nc3c2)N(C(=O)C(=O)Nc2ccn3ccnc3c2)C1 [Compound 67, N-(imidazo[1,2-a]pyridin-7-yl)-2-((2R,5S)-5-methyl-2-(2-(1,2,2,6,6-pentamethylpiperidin-4-yl)benzo[d]thiazol-5-yl)piperidin-1-yl)-2-oxoacetamide] | 0.005 to 0.05 | < 0.1 | < 0.005 | < 0.075 | B (“B” indicates an IC50 ratio greater than or equal to 15 fold but lower than 30 fold) | – | – | – | – | – |
| C[C@@H]1CC[C@@H](c2ccc3cn(C)nc3c2)N(C(=O)C(=O)Nc2cncc3cn[nH]c23)C1 (relative stereo) [Compound 13, 2-[rel-(2S,5R)-5-methyl-2-(2-methylindazol-6-yl)-1-piperidyl]-2-oxo-N-(1H-pyrazolo[4,3-c]pyridin-7-yl)acetamide] | > 0.05 | 0.1 to 1 | 0.005 to 0.05 | 0.075 to 0.125 | B (“B” indicates an IC50 ratio greater than or equal to 15 fold but lower than 30 fold) | – | – | – | – | – |
| C[C@H]1CC[C@H](c2cccc(N3CCN(C)CC3)c2)N(C(=O)C(=O)Nc2cnc(N)c3cn[nH]c23)C1 [Compound 25, N-(4-amino-1H-pyrazolo[4,3-c]pyridin-7-yl)-2-((2R,5S)-5-methyl-2-(3-(4-methylpiperazin-1-yl)phenyl)piperidin-1-yl)-2-oxoacetamide] | 0.005 to 0.05 | < 0.1 | < 0.005 | < 0.075 | C (“C” indicates an IC50 ratio of less than 15 fold) | – | – | – | – | – |
| C[C@H]1CC[C@H](c2cccc(C(F)(F)F)c2)N(C(=O)C(=O)Nc2cnc(N)c3cn[nH]c23)C1 [Compound 138, N-(4-amino-1H-pyrazolo[4,3-c]pyridin-7-yl)-2-((2R,5S)-5-methyl-2-(3-(trifluoromethyl)phenyl)piperidin-1-yl)-2-oxoacetamide] | > 0.05 | < 0.1 | 0.005 to 0.05 | < 0.075 | A (“A” indicates an IC50 ratio greater than or equal to 30 fold) | – | – | – | – | – |
| C[C@H]1CC[C@H](c2ccc3sc([C@H]4C[C@H](N(C)C)C4)nc3c2)N(C(=O)C(=O)Nc2cncc3cn[nH]c23)C1 [Compound 64, 2-((2R,5S)-2-(2-(3-(dimethylamino)cyclobutyl)benzo[d]thiazol-5-yl)-5-methylpiperidin-1-yl)-2-oxo-N-(1H-pyrazolo[4,3-c]pyridin-7-yl)acetamide] | 0.005 to 0.05 | < 0.1 | < 0.005 | < 0.075 | B (“B” indicates an IC50 ratio greater than or equal to 15 fold but lower than 30 fold) | – | – | – | – | – |
| C[C@H]1CC[C@H](c2ccc3nn(C4CCN(C)CC4)cc3c2)N(C(=O)C(=O)Nc2cncc3c(N)nccc23)C1 [Compound 51, N-(8-amino-2,7-naphthyridin-4-yl)-2-oxo-2-[(2R,5S)-5-methyl-2-[2-(1-methyl-4-piperidyl)indazol-5-yl]-1-piperidyl]acetamide] | > 0.05 | 0.1 to 1 | 0.005 to 0.05 | > 0.125 | A (“A” indicates an IC50 ratio greater than or equal to 30 fold) | – | – | – | – | – |
